The results in this text go back to ChEMBL document CHEMBL1131458, “Design and synthesis of malonic acid-based inhibitors of human neutrophil collagenase (MMP8)” (J Med Chem, 1998).

The target in this assay is Neutrophil collagenase (Homo sapiens, UniProt P22894). Briefly: Inhibition of Matrix metalloprotease-8 (Human neutrophil collagenase, MMP-8).
Chain of Neutrophil collagenase (P22894 whole entry): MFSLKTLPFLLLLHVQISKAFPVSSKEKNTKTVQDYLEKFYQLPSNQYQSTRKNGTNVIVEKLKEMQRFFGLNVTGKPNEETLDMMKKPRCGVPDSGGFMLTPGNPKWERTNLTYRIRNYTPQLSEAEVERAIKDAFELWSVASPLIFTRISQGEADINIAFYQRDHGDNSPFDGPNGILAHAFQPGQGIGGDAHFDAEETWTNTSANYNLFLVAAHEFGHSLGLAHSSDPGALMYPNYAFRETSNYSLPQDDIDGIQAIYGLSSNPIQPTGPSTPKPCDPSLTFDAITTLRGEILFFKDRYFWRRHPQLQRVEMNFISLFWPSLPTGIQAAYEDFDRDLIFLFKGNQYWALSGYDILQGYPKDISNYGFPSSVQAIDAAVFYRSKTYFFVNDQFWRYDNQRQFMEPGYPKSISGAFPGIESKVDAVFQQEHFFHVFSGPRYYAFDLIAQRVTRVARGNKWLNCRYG

The term Ki denotes a dissociation constant, usually derived from enzyme kinetics or from competition with a known ligand. Read a high Ki as weaker binding. The compound `COC(=O)c1ccc(CCNC(=O)[C@H](CCc2ccccc2)NC(=O)C(CC(C)C)C(=O)NO)cc1` (stereo not given in full) gave an inhibition constant Ki of 9.6 µM. As for `CCOC(=O)C(C(=O)NO)c1ccccc1` (stereo not given), the affinity, expressed as Ki, was 98 µM. The same measure for `CC(C)C[C@H](C(=O)NO)C(=O)N[C@@H](C)C(=O)NCC(N)=O`: 121 µM; for `O=C(NO)C(Cc1ccccc1)C(=O)NCCCc1ccccc1` (stereo not given): 0.56 µM.

The compound `O=C(NO)C(O)C(=O)NCCCc1ccccc1` (stereo not given) displayed a Ki of 2.3 µM. The result for `CCOC(=O)C(CCc1ccccc1)C(=O)NO` (stereo not given) reads 189 µM. The result for `CCOC(=O)C(Cc1ccccc1)C(=O)NO` (stereo not given) reads 53 µM; that for `CC(C)CC(C(=O)NO)C(=O)NC(CC(N)=O)C(=O)NCc1ccccc1` (stereo not given), 55 µM. The same measure for `CC(C)CC(C(=O)NO)C(=O)NC(Cc1ccccc1)C(=O)NCc1ccccc1` (stereo not given): 25 µM; for `CC(C)CC(C(=O)NO)C(=O)NC(CC(=O)O)C(=O)NCc1ccccc1` (stereo in doubt; 12b): 88 µM.

The compound `O=C(NO)C(CCc1ccccc1)C(=O)NCc1ccccc1` (stereo not given) returned an inhibition constant (Ki) of 2.3 µM. The result for `CC(C)CC(C(=O)NO)C(=O)NCCCc1ccccc1` (stereo not given) reads 0.54 µM. The result for `Cc1ccc(CCNC(=O)[C@H](CCc2ccccc2)NC(=O)C(Cc2ccccc2)C(=O)NO)cc1` (stereo not given in full) reads 1.7 µM; that for `CC(C)CC(C(=O)NO)C(=O)N[C@@H](CCc1ccccc1)C(=O)NCCc1ccc(C(=O)O)cc1` (stereo not given in full), 20 µM.

In turn, `CCCCCCCCNC(=O)C(CC(C)C)C(=O)NO` (stereo not given) returned a Ki of 0.24 µM.

As to `O=C(NO)C(Cc1ccccc1)C(=O)N1CCOCC1` (stereo not given), the Ki was found to be 50 µM. The result for `CC(C)CC(C(=O)NO)C(=O)Nc1ccccc1C(=O)NCc1ccccc1` (stereo not given) reads 36 µM; that for `O=C(NO)C(Cc1ccccc1)C(=O)NCc1ccccc1` (stereo not given), 3.1 µM; that for `CC(C)CC(C(=O)NO)C(=O)N[C@H](C)C(=O)NCc1ccccc1` (stereo not given in full), 194 µM. The result for `CC(C)CC(C(=O)NO)C(=O)NC(CC(N)=O)C(=O)NCc1cccc(N)c1` (stereo not given) reads 26 µM; that for `CCOC(=O)C(CC(C)C)C(=O)NO` (stereo not given), 190 µM. For the compound `CC(C)CC(C(=O)NO)C(=O)N1CCCC1C(=O)NCc1ccccc1` (stereo not given), affinity was put at a Ki of 168 µM. `Cc1ccc(CCNC(=O)[C@H](CCc2ccccc2)NC(=O)C(O)C(=O)NO)cc1` (stereo not given in full): the affinity corresponds to a Ki of 1.6 µM. The same measure for `CC(C)CC(C(=O)NO)C(=O)NC(C)C(=O)NCc1ccccc1` (stereo not given): 50 µM; for `Cc1ccc(CCNC(=O)[C@H](CCc2ccccc2)NC(=O)C(CC(C)C)C(=O)NO)cc1` (stereo not given in full): 1.4 µM.

`CC(C)CC(C(=O)NO)C(=O)NC(CO)C(=O)NCc1ccccc1` (stereo not given) had a Ki of 35 µM. The result for `CC(C)CC(C(=O)NO)C(=O)N[C@@H](CCc1ccccc1)C(=O)NCCc1ccc(O)cc1` (stereo not given in full) reads 12 µM; that for `O=C(NO)C(CCc1ccccc1)C(=O)NCCCc1ccccc1` (stereo not given), 0.49 µM; that for `CC(C)CC(C(=O)NO)C(=O)NC(CC(=O)O)C(=O)NCc1ccccc1` (stereo in doubt; 12), 136 µM. The result for `Cc1ccc(CCNC(=O)[C@H](CCc2ccccc2)NC(=O)C(CCc2ccccc2)C(=O)NO)cc1` (stereo not given in full) reads 4 µM.
